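Following 48 hours of exposure in 96-well plates, responses at five concentrations were used to interpolate endpoints linearly. At the GI50, growth is halved. TGI: total growth inhibition.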 Bounds are passed on as bounds.

Common to all, as to test: inhibition of tumour cell growth, NCI panel, 48 h
The test system of test [1] is MOLT-4 leukemia.
Test [2] has as its system LXFL 529 NSCLC.
For test [3], the system named is UO-31 renal.
For test [4], the system named is HOP-62 NSCLC.
Test [5] concerns KM12 colon.
For test [6], the system named is UACC-257 melanoma.
Test [7] deals with M14 melanoma.
The subject of test [8] is HCT-116 colon.
Test [9] concerns SK-MEL-5 melanoma.
For test [10], the system named is HCC-2998 colon.

With `CSc1ccc(/C=C2\CN(C)C/C(=C\c3ccc(SC)cc3)C2=O)cc1`, the TGI in test [1] was over 100 µM; in test [2], 35.7 µM; in test [3], over 100 µM; in test [4], over 100 µM; in [5], 44.8 µM; in test [6], over 100 µM. Also, the TGI in [7], in test [8], in [9] and in test [10] was over 100 µM each time.
For the molecule `CC(=O)NC1=C(NCC(C)(C)C)C(=O)c2ccccc2C1=O`, the TGI in test [1], in test [2], in test [3], in [4], in test [5] and in [6] was over 100 µM throughout. Also, the TGI in test [7], in [8], in test [9] and in test [10] was over 100 µM in each case.
Consider `CCOC(=O)COc1cccc2c1C(=O)CCO2`, for which the TGI in [1], in test [2], in test [3], in [4], in [5] and in test [6] was over 100 µM in each case. Further, the TGI in [7], in test [8], in test [9] and in [10] was over 100 µM in each case.
As for `O=C(O)CCSC(=O)Nc1cccc(F)c1`, the TGI in test [1] is over 100 µM; in [2], over 100 µM; in [3], over 100 µM; in [4], 95.7 µM; in [5], over 100 µM; in [6], over 100 µM. The TGI in [7] is 45.4 µM; in [10], over 100 µM.
On to `COC(=O)[C@@]12C3=NO[C@]1(C(=O)OC)C(O[Si](C)(C)C(C)(C)C)[C@H]1OC(C)(C)O[C@H]1[C@@H]2C(OCc1ccccc1)CC3` (some centres not stated), for which the TGI in test [1], in test [2], in test [3], in test [5], in [7] and in test [8] was over 100 µM each time. The TGI in test [9] and in test [10] was over 100 µM throughout.
In the case of `O=C1NC2(CCCCC2)C2CCCCC(O)C12` (configuration not stated), the TGI in [1], in test [2], in [3], in [4], in test [5] and in test [6] was over 100 µM throughout. Moreover, the TGI in [8] and in test [10] was over 100 µM throughout.
With `Cc1cc(=O)[nH]c(NNC(C#N)c2cccc(O)c2)n1` (configuration not stated), the TGI in [1], in [2], in test [3], in test [4], in test [5] and in test [6] was over 100 µM each time. Moreover, the TGI in test [7], in test [8] and in test [9] was over 100 µM in each case.
Consider `COc1ccc2c(c1)C1(C=N2)CCN(C(C)=O)CC1`, for which the TGI in test [1], in test [2], in [4], in test [5], in test [6] and in test [7] was over 100 µM in each case. For the same molecule, the TGI in [8], in test [9] and in [10] was over 100 µM throughout.
Take `NS(=O)(=O)c1ccccc1C(=O)N/N=C(\c1nc2ccc([N+](=O)[O-])cc2[nH]c1=O)C(O)c1ccc([N+](=O)[O-])cc1` (configuration not stated): the TGI in test [1], in [2], in [3], in test [5], in test [6] and in test [7] was over 100 µM throughout. Besides, the TGI in test [8], in test [9] and in test [10] was over 100 µM each time.
Regarding `Nc1ccc(C(=O)N/C(=C\c2ccc3c(c2)OCO3)c2nc3[nH]c(=S)[nH]c(=O)c3[nH]2)cc1`, the TGI in test [1], in test [2], in test [3], in test [5], in test [7] and in test [9] was over 100 µM throughout. Besides, the TGI in [10] is over 100 µM.
Turning to `NC(CSC(c1ccccc1)(c1ccccc1)c1ccc2c(c1)OCO2)C(=O)O` (configuration not stated), the GI50 in test [1] is 0.631 µM; in test [3] it was 9.6 µM; in test [4], 1.64 µM; in [5] it was 0.605 µM; in [6], 2.52 µM; in [7], 0.239 µM. In addition, the GI50 in test [8] was 0.358 µM; in test [9], 0.365 µM; in test [10], 0.35 µM. The TGI is 17 µM in [1]; over 100 µM in test [3]; over 100 µM in test [4]; over 100 µM in [5]; over 100 µM in [6]; 0.648 µM in test [7]. Moreover, the TGI in test [8] is 29.6 µM; in test [9] it was 5.01 µM; in test [10], 3.49 µM.
For the molecule `O=[S@@]1Nc2ccc(Br)cc2S1`, the TGI in test [1] is over 100 µM; in test [2], over 100 µM; in test [3] it was 7.43 µM; in test [5] it was over 100 µM; in [6] it was over 100 µM; in test [7], over 100 µM. Besides, the TGI in [8] and in [9] was over 100 µM each time.
On to `Nc1cc2nc3ccccc3sc-2cc1=O`, for which the GI50 in test [1] was 4.26 µM; in [3], 1.33 µM; in test [4], 2.51 µM; in test [5], 10.8 µM; in [6] it was 2.3 µM; in [7] it was 1.66 µM. In addition, the GI50 in test [8] is 2.56 µM; in test [9], 1.55 µM; in test [10], 3.95 µM. Moreover, the TGI in test [1] is over 100 µM; in test [3] it was 3.36 µM; in [4] it was 5.71 µM; in [5], 30.6 µM; in test [6] it was 5.83 µM; in test [7] it was 3.2 µM. For the same molecule, the TGI in [8] is 10.3 µM; in test [9], 2.93 µM; in test [10], 13.3 µM.

Values taken from PubChem BioAssay (NCI).
